Measurements published in paper PMC9814687, “Controlling oncogenic KRAS signaling pathways with a Palladium-responsive peptide” (Communications Chemistry, 2022).

Assays:
HeLa cells = experiment: MTT toxicity assay; conditions: long incubation (24 h), up to 100 µM
Method: cells as follows: 100,000 cells per well were seeded in 96 well plates two days before treatment with different
concentrations of the peptides/metal. After 24 h of incubation, HEPES containing 3-(4,5-dimethylthiazol-2-
yl)-2,5-diphenyl tetrazolium bromide (MTT) was added to the cell culture medium to a final concentration of
0.5 mg/ml. Cells were then incubated for 4 h to allow the formation of formazan precipitates by metabolically
active cells. A detergent solution of 10% SDS (sodium dodecyl sulphate) and 0.01 M HCl was then added,
and the plate was incubated overnight at room temperature to allow the solubilization of the precipitates.
The quantity of formazan in each well (directly proportional to the number of viable cells) was measured by
recording changes in absorbance at 570 nm in a microtiter plate reading spectrophotometer (Tecan Infinite
Toxicity assay. HeLa cells were incubated with peptide, metallopeptide and palladium at
different concentrations, for 24 h at 37 °C. Then, the cells were washed two time with PBS before carry ing
out the MTT assay. Data are mean +/- SEM for experimental repeated in two independent times.

[1] = system: phospho-ERK1/2 in serum-starved A549 cells; experiment: Inhibition of ERK1/2 phosphorylation (Western blot, densitometry); assay type: cell-based; conditions: 4 h, Western blot with pERK antibodies
Method: (§1) All steps were performed on a sterile clean bench Telstar AV-100 at rt. Solutions stored in a fridge were warmed beforehand in a water bath (37 °C). Unless otherwise specified, all incubations were performed in DMEM containing 5% of fetal bovine serum (FBS-DMEM). Cell Culture: A549 cell line was cultured in DMEM (Dulbecco´s modified Eagle´s medium), 5 mM glutamine, penicillin (100 units/mL) and streptomycin (100 units/mL), all from Invitrogen. Proliferating cultures were maintained in a 5% CO2 humidified incubator at 37 °C. For all the experiments, cells were seeded in the corresponding well at the indicated concentration 2 days before treatment. A549 cells were seeded on glass-bottom plates 48 h (150.000 cell/ml) before treatment. […] (10 µM) were added. The metallopeptide was made just before the addition to cells by pre-incubating with metal complexes (1:1) in water for 10 min. After 30 min of incubation with cells, these were washed twice with PBS and replaced with fresh FBS-DMEM to observe under the microscope with adequate filters. Digital pictures of the different samples were taken under identical conditions of gain and exposure. A549 cells were seeded on glass-bottom plates (150.000 cell/ml) 48 h before treatment. […] After two washes with PBS, the cells were lysed in Laemmli buffer containing Tris pH 6,8 1 M, Glycerol, SDS, Bromophenol Blue, and β-mercaptoethanol, and heated at 95 °C for 10 min. The samples were separated by SDS-12.5% polyacrylamide gel and transferred to nitrocellulose membrane, to probed by Western blotting. […] The visualization was performed with ChemiDoc MP imaging system by Biorad, and the processing of the images and densitometry quantification was carried out with ImageLab program.

A549 cells = experiment: Cell internalization by fluorescence microscopy; assay type: cell-based; conditions: for cellular internalization (intracellular TMR fluorescence), in words: A549 cells, 10 µM, 30 min at 37 °C, DMEM with 5% FBS, washed with PBS, fluorescence microscopy
Method: as §1
All images were obtained with an Andor Zyla mounted on a Nikon TiE. LED excitation wavelength 550 nm. Filter cube TRITC-B-000 (Semrock): BP 543/22 nm, […] 593/40 nm, and DM 562 nm. Images were further processed with Image J.

[2] = Circular dichroism (α-helical content); assay type: physicochemical; conditions: 10% TFE, 25 °C
Method: Circular Dichroism was measured on a Jasco-715 coupled with a thermostat Nestlab RTE-111 using a 2 mm Hellma cuvette at 25 °C and the following settings: Acquisition range, 300-195 nm; band width, 2.0 nm; resolution, 0.2 nm; accumulation, 5 scans; sensitivity, 10 mdeg; response time, 0.25 s; speed, 100 nm/min. The spectra are the average of 5 scans and were processed using the “smooth” macro in the program KaleidaGraph (v 3.5 by Synergy Software).
Circular Dichroism. Circular Dichroism was measured on a Jasco-715 coupled with a thermostat Nestlab RTE-111 using a 2 mm Hellma cuvette at 25 °C and the following settings: Acquisition range, 300 -195 nm; band width, 2.0 nm; resolution, 0.2 nm; accumulation, 5 scans; sensitivity, 10 mdeg; response time, 0.25 s; speed, 100 nm/min. The spectra are the average of 5 scans and were processed using the “smooth” macro in the program KaleidaGraph (v 3.5 by Synergy Software).
Fig S3. Left: CD titration experiment.
5 and 10 equivalents of cis-PdCl2(en). The experiments were carried out in 10 mM phosphate buffer pH 7.5, 100 mM of NaCl and 10% TFE, 25 °C. Mean residue molar ellipticity ([ Θ]MRE) was calculated considering the peptide as an 18-mer.
(1 picture or pasted object on this page, not shown here)

NCCN.[Cl][Pd][Cl] [cis-PdCl2(en), reference compound]
cell viability in MTT assay, in words (HeLa cells): remains high | levels of ERK phosphorylation, in words [1]: failed to induce changes

CC[C@H](C)[C@H](NC(=O)CNC(=O)[C@H](Cc1ccccc1)NC(=O)[C@H](Cc1ccccc1)NC(=O)[C@H](CCCNC(=N)N)NC(=O)[C@H](CCCNC(=N)N)NC(=O)CCCCCNC(=O)c1ccc2c(c1)C(=O)OC21c2ccc(N(C)C)cc2Oc2cc(N(C)C)ccc21)C(=O)N[C@@H](Cc1c[nH]cn1)C(=O)N[C@@H](CC(C)C)C(=O)N[C@H](C(=O)N[C@@H](CC(N)=O)C(=O)N[C@@H](Cc1c[nH]cn1)C(=O)N[C@@H](CC(C)C)C(=O)N[C@@H](CCCCN)C(=O)N[C@H](C(=O)N[C@@H](CCC(=O)O)C(=O)N[C@@H](CCC(=O)O)C(=O)NCC(=O)N[C@@H](CC(N)=O)C(N)=O)[C@@H](C)O)[C@@H](C)O [αH-His2[Pd]]
levels of ERK phosphorylation, in words [1]: significant decrease | cellular internalization (intracellular TMR fluorescence), in words (A549 cells): intense intracellular fluorescence signal | cell localization by fluorescence microscopy (A549 cells; cells incubated with the metallopeptide, authors' reply to reviewers): endosomal localization | α-helical content ([2]; from CD band at 222 nm, 20 µM peptide + 1 eq. cis-PdCl2(en), 10 mM phosphate pH 7.5, 100 mM NaCl): about 22%

TMR-Ahx-RRFFGIHLTNHLKTEEGN [αH-His2]
levels of ERK phosphorylation, in words [1]: failed to induce changes | cellular internalization (intracellular TMR fluorescence), in words (A549 cells): rather poor internalization | mean residue molar ellipticity at 222 nm ([2]; CD, 20 µM peptide, 10 mM phosphate buffer pH 7.5, 100 mM NaCl, calculated for an 18-mer, metallopeptide 30 min after 1 eq. cis-PdCl2(en)): ≈ −2200 deg cm^2 dmol^−1
